# Patent US4721713A, “Process for inhibiting blood platelet aggregation and promoting vasodilation” (Toyo Jozo Kabushiki Kaisha, priority 1986, dated 1988)
# Like-named read-outs stand apart in the source and are kept apart here.
# What was measured:
# [1] = tested on: platelet aggregation in platelet-rich rabbit plasma; experiment: Inhibitory effect on blood platelet aggregation, effect in vitro (ADP-induced); type: cell-based; details: for inhibition at 100 µM: Oryctolagus cuniculus, Platelet, 0.05 h, read-out: Inhibition Ratio on Platelet Aggregation (Mean ± S.E)
# Description: An aggregating agent, adenosine-5'-diphosphate (final concentration 2.5 μM), was added thereto and the platelet aggregating potential was measured with an aggregometer.
# [2] = tested on: blood flow in left hind leg; experiment: Vasodilating activity upon intra-arterial administration (perfused left hind leg); type: in vivo, Mongrel dogs; details: for Vasodilating Activity (relative to blood flow increase by papaverine 30 μg as 100%): 100 μg, i.a., mean ± S.E. for 3 animals
# Description: Mongrel dogs anesthetized with urethane (450 mg/kg iv) and α-chlora-lose (45 mg/kg iv) after pretreatment with morphine (1.5 mg/kg, sc) were secured in a supine position. Blood from the right femoral artery was introduced into the left femoral artery through a circulation pump and the left hind leg was perfused under constant pressure by connection with a Starling's resistance in an exosomatic circulatory system. The prefusion pressure was set slightly higher than the mean blood pressure of each animal and the change in blood flow upon intra-arterial injection of the test compound was determined. The results, showing specific activity as compared with a value indicating the degree of increase in the amount of blood flow by papaverine (30 μg, iv) as 100%, are shown in Table 4.
# [3] = tested on: experimental disseminated intravascular coagulation; experiment: Effect on disseminated intravascular coagulation (E. coli lipopolysaccharide infusion); type: in vivo, Male Wistar rats; details: 100 mg/kg p.o.
# Description: Male Wistar rats, seven animals in a group, were administered per orally the agents (100 mg/kg) to be tested. After one hour, E. coli lipopolysaccharide (50 mg/kg) was continuously injected intravenously for four hours. A control group was given physiological saline intravenously under the same conditions.
# Blood was collected immediately after finishing the injection to measure the number of platelets, the activated partial thromboplastin time, the prothrombin time and the amount of fibrinogen. In the control group, in which E. coli lipopolysaccharide was injected, a marked decrease in the number of platelets and the amount of fibrinogen and a marked prolongation of the activated partial thromboplastin time and the prothrombin time are observed.
# PAF-induced shock = experiment: Effect against platelet activated factor (PAF)-induced shock; type: in vivo, Male ddY strain mice; details: 100 mg/kg p.o.
# Description: Male ddY strain mice, male, 10 animals in a group, were administered per orally the compound of the present invention (100 mg/kg), and after one hour PAF (60 μg/kg) was administered intravenously to determine the ratio of mortality.
# anoxia = experiment: Protective effect against anoxia; type: in vivo, Male ddY strain mice; details: for Survival Time: 200 mg/kg p.o., mean ± S.E.
# Description: The present compound and a control were administered per orally 30 or 60 mins. before the test.
# Acute toxicity in rats = type: in vivo, male Wister rats; details: rat, in vivo; oral, rats
# rats = experiment: Acute toxicity in rats; type: in vivo, male Wister rats
# [4] = tested on: arterial blood flow (vertebral, coronary, renal, femoral); experiment: Vasodilating activity upon intravenous administration (regional arterial blood flow); type: in vivo, mongrel dog; details: FIG. 1
# Text: A cuff-type probe for measuring blood flow was applied to the left vertebral artery, the left anterior descending coronary artery, the left renal artery and the right femoral artery of a mongrel dog anesthetized in the same way as hereinabove and the blood flow was continuously measured. The blood pressure was monitored by a pressure transducer connected to a cannula inserted into the left femoral artery, and the heart rate was monitored through a tachometer by triggering the R-wave of lead II of an electrocardiograph. The agent to be tested was injected into the left venous cephalica. The results are shown in FIG. 1, in which the ordinate indicates the response ratio and the abscissa indicates dosages by intravenous administration, and in which
# Acute toxicity in mice = type: in vivo; details: mouse, in vivo
# mice = experiment: Acute toxicity in mice; type: in vivo; details: intravenous 100 mg/kg
# [5] = tested on: number of platelets in the circulating blood; experiment: Effect in vivo: number of platelets in circulating blood after E. coli lipopolysaccharide; design: species or system Male Wistar rats; details: for Number of Platelets, Exp. 1 / Number of Platelets, Exp. 2: ratio pre- and post-administration, LPS 5 mg/kg i.p., 3 hours
# Description: Male Wistar rats, five animals in a group, were administered per orally the agents to be tested. After one hour, E. coli lipopolysaccharide (5 mg/kg) was injected intraperitoneally and 3 hours thereafter blood samples were collected and measured as to the number of platelets in the circulating blood to determine the ratio of platelets pre- and post-administration of the agents. The tests were repeated twice.
# [6] = tested on: microorganism strains TA100, TA1535, WP2 uvr A, TA98, TA1537 and TA1538; experiment: Mutagenicity, backward mutation test; type: cell-based
# Description: A backward mutation test using microorganism strains TA100, TA1535, WP2 uvr A, TA98, TA1537 and TA1538 was performed by the method according to Iyer et al. [N. Y. Iyer and W. Szybalski, Appl. Microbiol., 6: 37 (1958)]. The test agents were tenfold diluted in six stages of concentration of 0.00333-333 μg/disc.
# [7] = tested on: L5178Y murine lymphoblastoma; experiment: Cytotoxicity; type: cell-based; details: 37° C. for 18 hours
# Description: To L5178Y murine lymphoblastoma (2×10^4 cells/ml) suspended in a medium (27 ml) comprising Fischer's culture medium including 10% bovine serum, were added test agents in solution (0.3 ml) diluted with a culture medium and the material was incubated at 37° C. for 18 hours. Growth of the cells was determined by color change. Growth inhibition of the cells was not observed at any concentration of 20 μg/ml and 100 μg/ml of the compound of the present invention, and so no cytotoxicity was observed.
# [8] = final concentration 100 μM, ADP 2.5 μM
# [9] = final concentration 100 μM, ADP 2.5 μM, 37° C. for 3 minutes
# [10] = LPS 50 mg/kg i.v. over four hours
# [11] = PAF 60 μg/kg i.v. after one hour
structure (smiles),measurement,setting,value
"CC(=O)Oc1ccccc1C(=O)O [Acetyl salicylic acid, acetyl salicylic acid]",inhibition at 100 µM,[1],-0.6 ± 0.6%
same,Inhibitory effect on blood platelet aggregation (in words),[1]; [8],no inhibitory effect
"Cc1nc(C)c(C)nc1C [Tetramethylpyrazine, tetramethylpyrazine]",Vasodilating Activity (relative to blood flow increase by papaverine 30 μg as 100%),[2],19.3 ± 0.9%
same,inhibition at 100 µM,[1]; [9],3 ± 1.6%
same,Inhibitory effect on blood platelet aggregation (in words),[1]; [8],no inhibitory effect
"Cc1nc(O)c(C(C)C)nc1C.Cl [Present compound, 2-hydroxy-3-isopropyl-5,6-dimethylpyrazine hydrochloride]",Activated Partial Thromboplastin Time,[3]; [10],48.5 ± 7.4 s
same,Fibrinogen,[3]; [10],77.2 ± 13.1 mg/dL
same,Platelet Number,[3]; [10],177 ± 51 × 10^3 /mm^3
same,Prothrombin Time,[3]; [10],14.3 ± 1.4 s
same,Effect against all the factors tested (in words),[3]; experimental disseminated intravascular coagulation,significant effect against all the factors tested
same,Action against PAF-induced shock (in words),PAF-induced shock,protective action
same,"Mortality, Experiment 1",PAF-induced shock; [11],1/10
same,"Mortality, Experiment 2",PAF-induced shock; [11],3/10
same,Vasodilating Activity (relative to blood flow increase by papaverine 30 μg as 100%),[2],100.7 ± 19.1%
same,Vasodilating activity compared with tetramethylpyrazine (in words),[2]; intra-arterial,"markedly stronger vasodilating activity than that of the control drug, tetramethylpyrazine"
same,Survival Time,anoxia; pretreatment time 30 min.,42.7 ± 1.6 s
same,Survival Time,anoxia; pretreatment time 60 min.,48.1 ± 1.9 s
same,Survival time (in words),anoxia; pretreatment per orally,Significant prolongation of survival time
same,inhibition at 100 µM,[1]; [9],69.6 ± 5.4%
same,Inhibitory effect on blood platelet aggregation (in words),[1]; [8],distinct inhibitory effect
same,LD50,Acute toxicity in rats,903 mg/kg
same,Death,"rats; intravenous 50 mg/kg, rats",no death was observed
same,Dose attainable due to the solubility of the compound,"rats; rat, in vivo, iv",up to 50 mg/kg
same,Coronary arterial blood flow (in words),[4],"increases blood flow in the vertebral artery, in the coronary artery"
same,Femoral arterial blood flow (in words),[4],"increases blood flow in the vertebral artery, in the coronary artery and in the femoral artery"
same,Renal arterial blood flow (in words),[4],does not affect the renal arterial blood flow
same,Selectivity for vertebral and coronary arterial blood flow (in words),[4],Selective effects on the vertebral arterial blood flow and the coronary arterial blood flow
same,Vertebral arterial blood flow (in words),[4],increases blood flow in the vertebral artery
same,LD50,"Acute toxicity in mice; intravenous, read-out: LD50",~200 mg/kg
same,LD50,"Acute toxicity in mice; oral, read-out: LD50 oral",555 mg/kg
same,Death,mice,no death was observed
same,"Number of Platelets, Exp. 1",[5]; 100 mg/kg p.o.,58.2 ± 7.8%
same,"Number of Platelets, Exp. 2",[5]; 100 mg/kg p.o.,55.9 ± 14.0%
same,Effect on decrease of platelet number (in words),"[5]; 100 mg/kg per orally, compared with ticlopidine 200 mg/kg oral","inhibits the decrease of platelet number, which is comparable to an oral dose of 200 mg/kg ticlopidine"
same,Mutagenesis,"[6]; 0.00333-333 μg/disc, any concentration",No mutagenesis was found
same,Mutagenesis under metabolic activation,[6]; metabolic activation using an S-9 mixture,no mutagenesis was observed
same,Growth inhibition of the cells,[7]; 20 μg/ml,not observed
same,Growth inhibition of the cells,[7]; 100 μg/ml,not observed
"Clc1ccccc1CN1CCc2sccc2C1 [Ticlopidine, ticlopidine, reference compound]",inhibition at 100 µM,[1]; [9],-1.2 ± 1.2%
same,Inhibitory effect on blood platelet aggregation (in words),[1]; [8],no inhibitory effect
same,"Number of Platelets, Exp. 1",[5]; 200 mg/kg p.o.,57.9 ± 12.0%
same,"Number of Platelets, Exp. 2",[5]; 200 mg/kg p.o.,63.4 ± 19.4%
